Twelve compounds from ChEMBL document CHEMBL4665782, “Furostanol Saponins from Trillium tschonoskii Promote the Expansion of Human Cord Blood Hematopoietic Stem and Progenitor Cells” (2020) can be followed below.

The test system of test [1] is CD34-positive (myeloid/lymphoid) cell. In words: Expansion-promoting activity against human CD34+cells assessed as increase in CD34+/CD38- cells measured after 4 days by FACS analysis. The class given is functional, cell-based.
A short description of test [2]: Expansion-promoting activity against human CD34+ cells assessed as increase in Lin-CD34+CD38-CD45RA-CD49f+CD90- multipotent progenitor cells measured after 4 days by FACS analysis relative to control. Type of test: functional, CD34-positive (myeloid/lymphoid) cell.
Test [3] can be described thus: Expansion of human CD34+cells measured after 4 days by FACS analysis. Type of test: functional, CD34-positive (myeloid/lymphoid) cell.
In test [4] the test system is CD34-positive (myeloid/lymphoid) cell. In words: Expansion-promoting activity against human CD34+ cells assessed as increase in Lin-CD34+CD38-CD45RA-CD49f-CD90- multipotent progenitor cells measured after 4 days by FACS analysis. The class given is functional, cell-based.

The structures appear in SMILES notation. The source made the active and inactive calls. The rule behind the calls is not given here.

For `C[C@H](CCC(=O)[C@@H](C)C1C(=O)C[C@H]2[C@@H]3CC=C4C[C@@H](O[C@@H]5O[C@H](CO)[C@@H](O)[C@H](O)[C@H]5O[C@@H]5O[C@@H](C)[C@H](O)[C@@H](O)[C@H]5O)CC[C@]4(C)[C@H]3CC[C@]12C)CO[C@@H]1O[C@H](CO)[C@@H](O)[C@H](O)[C@H]1O` (some centres undefined), the outcome in test [1] and in test [4] was Active. The “fold change (FC)” value in test [2] came to 1.8; in test [3], 8.4.
With `C[C@H](CC[C@@]1(O)OC2C[C@H]3[C@@H]4C[C@@H](O)[C@@]5(O)C[C@@H](O[C@@H]6O[C@H](CO)[C@@H](O)[C@H](O)[C@H]6O[C@@H]6O[C@@H](C)[C@H](O)[C@@H](O)[C@H]6O)CC[C@]5(C)[C@H]4CC[C@]3(C)[C@@]2(O)[C@@H]1C)CO[C@@H]1O[C@H](CO)[C@@H](O)[C@H](O)[C@H]1O` (some centres undefined), the outcome in test [4] was Active.
Consider `CC1=C2[C@](O)(C[C@H]3[C@@H]4C[C@@H](O)[C@@]5(O)C[C@@H](O[C@@H]6O[C@H](CO)[C@@H](O[C@@H]7O[C@@H](C)[C@H](O[C@@H]8O[C@@H](C)[C@H](O)[C@@H](O)[C@H]8O)[C@@H](O)[C@H]7O)[C@H](O)[C@H]6O[C@@H]6O[C@@H](C)[C@H](O)[C@@H](O)[C@H]6O)CC[C@]5(C)[C@H]4CC[C@]23C)C(C[C@@H](C)CO[C@@H]2O[C@H](CO)[C@@H](O)[C@H](O)[C@H]2O)C1=O` (some centres undefined), for which the result in test [1] and in test [4] was Active. Further, the results for the “fold change (FC)” value in test [2] and in test [3] were 1.3 and 6.7, respectively.
Regarding `C/C(C(=O)CC[C@@H](C)CO[C@@H]1O[C@H](CO)[C@@H](O)[C@H](O)[C@H]1O)=C1/C(=O)C[C@H]2[C@@H]3CC=C4C[C@@H](O[C@@H]5O[C@H](CO)[C@@H](O)[C@H](O)[C@H]5O[C@@H]5O[C@@H](C)[C@H](O)[C@@H](O)[C@H]5O)CC[C@]4(C)[C@H]3CC[C@]12C`, the outcome in test [1] and in test [4] was Active. Besides, the “fold change (FC)” value in test [2] is 1; in test [3], 5.7.
For `Cc1c(CC[C@@H](C)CO[C@@H]2O[C@H](CO)[C@@H](O)[C@H](O)[C@H]2O)oc2c1[C@@]1(C)CC[C@H]3[C@@H](C[C@@H](O)[C@@]4(O)C[C@@H](O[C@@H]5O[C@H](CO)[C@@H](O[C@@H]6O[C@@H](C)[C@H](O[C@@H]7O[C@@H](C)[C@H](O)[C@@H](O)[C@H]7O)[C@@H](O)[C@H]6O)[C@H](O)[C@H]5O[C@@H]5O[C@@H](C)[C@H](O)[C@@H](O)[C@H]5O)CC[C@]34C)[C@@H]1C2`, the outcome in test [1] and in test [4] was Active. Moreover, the “fold change (FC)” value is 1.6 in test [2] and 7.7 in test [3].
Regarding `C[C@H](CCC(=O)[C@@H](C)C1C(=O)C[C@H]2[C@@H]3CC=C4C[C@@H](O[C@@H]5O[C@H](CO)[C@@H](O[C@@H]6O[C@@H](C)[C@H](O)[C@@H](O)[C@H]6O)[C@H](O)[C@H]5O[C@@H]5O[C@@H](C)[C@H](O)[C@@H](O)[C@H]5O)CC[C@]4(C)[C@H]3CC[C@]12C)CO[C@@H]1O[C@H](CO)[C@@H](O)[C@H](O)[C@H]1O` (some centres undefined), the result in test [1] and in test [4] was Active.
For `C[C@H](CC[C@@]1(O)OC2C[C@H]3[C@@H]4C[C@@H](O)[C@@]5(O)C[C@@H](O[C@@H]6O[C@H](CO)[C@@H](O[C@@H]7O[C@@H](C)[C@H](O[C@@H]8O[C@@H](C)[C@H](O)[C@@H](O)[C@H]8O)[C@@H](O)[C@H]7O)[C@H](O)[C@H]6O[C@@H]6O[C@@H](C)[C@H](O)[C@@H](O)[C@H]6O)CC[C@]5(C)[C@H]4CC[C@]3(C)[C@@]2(O)[C@@H]1C)CO[C@@H]1O[C@H](CO)[C@@H](O)[C@H](O)[C@H]1O` (some centres undefined), the results for the “fold change (FC)” value in test [2] and in test [3] were 1.8 and 8.4, respectively. In test [4], the result was Active.
As for `Cc1c(CC[C@@H](C)CO[C@@H]2O[C@H](CO)[C@@H](O)[C@H](O)[C@H]2O)oc2c1[C@@]1(C)CC[C@H]3[C@@H](CC=C4C[C@@H](O[C@@H]5O[C@H](CO)[C@@H](O)[C@H](O)[C@H]5O[C@@H]5O[C@@H](C)[C@H](O)[C@@H](O)[C@H]5O)CC[C@@]43C)[C@@H]1C2`, the result in test [1] and in test [4] was Active. Also, the “fold change (FC)” value was found to be 0.9 in test [2] and 5.5 in test [3].
Regarding `C/C(C(=O)CC[C@@H](C)CO[C@@H]1O[C@H](CO)[C@@H](O)[C@H](O)[C@H]1O)=C1/C(=O)C[C@H]2[C@@H]3C(=O)C=C4C[C@@H](O[C@@H]5O[C@H](CO)[C@@H](O[C@@H]6O[C@@H](C)[C@H](O)[C@@H](O)[C@H]6O)[C@H](O)[C@H]5O[C@@H]5O[C@@H](C)[C@H](O)[C@@H](O)[C@H]5O)CC[C@]4(C)[C@H]3CC[C@]12C`, the result in test [1] was Active.
As to `C/C(C(=O)CC[C@@H](C)CO[C@@H]1O[C@H](CO)[C@@H](O)[C@H](O)[C@H]1O)=C1/C(=O)C[C@H]2[C@@H]3CC=C4C[C@@H](O[C@@H]5O[C@H](CO)[C@@H](O[C@@H]6O[C@@H](C)[C@H](O)[C@@H](O)[C@H]6O)[C@H](O)[C@H]5O[C@@H]5O[C@@H](C)[C@H](O)[C@@H](O)[C@H]5O)CC[C@]4(C)[C@H]3CC[C@]12C`, the outcome in test [4] was Active.
As to `C[C@H](CC[C@@]1(O)OC2C[C@H]3[C@@H]4CC=C5C[C@@H](O[C@@H]6O[C@H](CO)[C@@H](O[C@@H]7O[C@H](CO)[C@H](O)[C@@H](O)[C@H]7O)[C@H](O)[C@H]6O[C@@H]6O[C@@H](C)[C@H](O)[C@@H](O)[C@H]6O)CC[C@]5(C)[C@H]4CC[C@]3(C)[C@@]2(O)[C@@H]1C)CO[C@@H]1O[C@H](CO)[C@@H](O)[C@H](O)[C@H]1O` (some centres undefined), the outcome in test [1] and in test [4] was Active. For the same compound, the “fold change (FC)” value in test [2] is 1.9; in test [3], 8.8.
In the case of `CC1=C2[C@](O)(C[C@H]3[C@@H]4C[C@@H](O)[C@@]5(O)C[C@@H](O[C@@H]6O[C@H](CO)[C@@H](O[C@@H]7O[C@@H](C)[C@H](O)[C@@H](O)[C@H]7O)[C@H](O)[C@H]6O[C@@H]6O[C@@H](C)[C@H](O)[C@@H](O)[C@H]6O)CC[C@]5(C)[C@H]4CC[C@]23C)C(C[C@@H](C)CO[C@@H]2O[C@H](CO)[C@@H](O)[C@H](O)[C@H]2O)C1=O` (some centres undefined), the result in test [1] and in test [4] was Active.
